In patent US10968225B2, “Compounds and compositions for the treatment of cystic fibrosis” (Fondazione Istituto Italiano Di Tecnologia, priority 2017, dated 2021):
Where a name gives a salt, the structure may show the parent alone.

Target: T1, mutant CFTR (Homo sapiens, UniProt P13569, DEL508-508)
T1 construct: expressed in transfected cells
Test: Fluorescence (HS-YFP) assay for CFTR activity, corrector assay
Assay type: cell-based
Details: CFBE41o- and FRT cells with stable expression of mutant CFTR, read-out: activity (EC50)

T1 sequence (P13569 with tags, fused parts or gaps DEL508-508): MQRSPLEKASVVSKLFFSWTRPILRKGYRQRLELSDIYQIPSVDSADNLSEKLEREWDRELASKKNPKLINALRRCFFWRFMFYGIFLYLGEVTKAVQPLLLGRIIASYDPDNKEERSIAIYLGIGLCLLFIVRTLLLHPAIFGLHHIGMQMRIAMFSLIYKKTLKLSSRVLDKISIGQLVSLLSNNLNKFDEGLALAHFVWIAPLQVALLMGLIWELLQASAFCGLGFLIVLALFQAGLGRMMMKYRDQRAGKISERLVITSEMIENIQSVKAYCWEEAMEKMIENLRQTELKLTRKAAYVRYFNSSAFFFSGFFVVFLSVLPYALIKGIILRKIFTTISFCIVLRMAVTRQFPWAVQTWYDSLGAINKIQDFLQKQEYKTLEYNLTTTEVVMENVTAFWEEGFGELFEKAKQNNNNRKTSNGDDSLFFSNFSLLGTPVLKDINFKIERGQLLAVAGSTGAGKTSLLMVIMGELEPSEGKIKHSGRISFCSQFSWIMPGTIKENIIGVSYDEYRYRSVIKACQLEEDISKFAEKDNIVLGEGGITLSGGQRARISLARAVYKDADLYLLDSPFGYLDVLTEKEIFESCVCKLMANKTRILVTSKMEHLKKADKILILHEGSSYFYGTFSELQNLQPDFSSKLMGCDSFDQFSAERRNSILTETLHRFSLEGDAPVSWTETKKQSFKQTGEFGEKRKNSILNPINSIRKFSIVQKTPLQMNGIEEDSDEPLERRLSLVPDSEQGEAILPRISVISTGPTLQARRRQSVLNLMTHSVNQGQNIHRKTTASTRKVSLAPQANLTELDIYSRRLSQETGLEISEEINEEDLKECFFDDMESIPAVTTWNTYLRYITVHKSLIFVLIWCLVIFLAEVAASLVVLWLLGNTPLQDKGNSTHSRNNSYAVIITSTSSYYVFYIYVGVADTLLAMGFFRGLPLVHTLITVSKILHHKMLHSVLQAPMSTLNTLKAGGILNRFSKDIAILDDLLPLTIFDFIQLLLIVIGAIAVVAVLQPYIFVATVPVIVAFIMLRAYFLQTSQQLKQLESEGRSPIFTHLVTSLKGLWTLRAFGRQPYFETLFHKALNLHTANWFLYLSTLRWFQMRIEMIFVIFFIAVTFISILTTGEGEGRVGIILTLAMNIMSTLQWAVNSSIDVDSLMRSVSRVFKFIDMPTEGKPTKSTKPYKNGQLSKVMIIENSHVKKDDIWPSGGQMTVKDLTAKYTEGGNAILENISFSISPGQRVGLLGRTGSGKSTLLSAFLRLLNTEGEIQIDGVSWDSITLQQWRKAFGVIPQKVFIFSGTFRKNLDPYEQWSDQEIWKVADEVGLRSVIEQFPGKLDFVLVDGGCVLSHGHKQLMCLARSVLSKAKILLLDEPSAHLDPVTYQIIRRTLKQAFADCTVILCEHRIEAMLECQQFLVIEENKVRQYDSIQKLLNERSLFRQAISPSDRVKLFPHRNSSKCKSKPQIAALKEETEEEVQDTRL

SMILES | EC50 [µM]
CN(C(=O)c1cccc(-n2nc(C(F)(F)F)c3c2C(Oc2ccc(C(=O)O)cc2)COC3)c1)c1ccnc(OC(F)F)c1 (racemic) [Compound 270, 4-[[1-[3-[[2-(Difluoromethoxy)-4-pyridyl]-methyl-carbamoyl]phenyl]-3-(trifluoromethyl)-6,7-dihydro-4H-pyrano[4,3-c]pyrazol-7-yl]oxy]benzoic acid] | < 1
CN(C(=O)c1cccc(-n2nc(C(F)(F)F)c3c2C(Oc2ccc(C(=O)O)cc2)CNC3)c1)c1ccc2c(c1)OC(F)(F)O2 (racemic) [Compound 273, 4-[[1-[3-[(2,2-Difluoro-1,3-benzodioxol-5-yl)-methyl-carbamoyl]phenyl]-3-(trifluoromethyl)-4,5,6,7-tetrahydropyrazolo[4,3-c]pyridin-7-yl]oxy]benzoic acid hydrochloride] | < 1
CN(C(=O)c1cccc(-n2nc(C(F)(F)F)c3c2C(Oc2ccc(C(=O)O)cc2)COC3)c1)c1cnc2c(c1)CCC2 (racemic) [Compound 281, 4-[[1-[3-[6,7-Dihydro-5H-cyclopenta[b]pyridin-3-yl(methyl)carbamoyl]phenyl]-3-(trifluoromethyl)-6,7-dihydro-4H-pyrano[4,3-c]pyrazol-7-yl]oxy]benzoic acid] | 1 to 2
Cc1cc2ncc(N(C)C(=O)c3cccc(-n4nc(C(F)(F)F)c5c4C(Oc4ccc(C(=O)O)cc4)COC5)c3)cn2n1 (racemic) [Compound 294, 4-[[1-[3-[Methyl-(2-methylpyrazolo[1,5-a]pyrimidin-6-yl)carbamoyl]phenyl]-3-(trifluoromethyl)-6,7-dihydro-4H-pyrano[4,3-c]pyrazol-7-yl]oxy]benzoic acid] | < 1
CN(C(=O)c1cccc(-n2nc(C(F)(F)F)c3c2C(Oc2ncc(C(=O)O)cn2)COC3)c1)c1ccc2c(c1)OC(F)(F)O2 (racemic) [Compound 295, 2-[[1-[3-[(2,2-Difluoro-1,3-benzodioxol-5-yl)-methyl-carbamoyl]phenyl]-3-(trifluoromethyl)-6,7-dihydro-4H-pyrano[4,3-c]pyrazol-7-yl]oxy]pyrimidine-5-carboxylic acid] | 1 to 2
CN(C(=O)c1cccc(-n2nc(C(F)(F)F)c3c2C(Oc2ncc(C(=O)O)cn2)COC3)c1)c1ccc2c(c1)OCC2 (racemic) [Compound 296, 2-[[1-[3-[2,3-Dihydrobenzofuran-6-yl(methyl)carbamoyl]phenyl]-3-(trifluoromethyl)-6,7-dihydro-4H-pyrano[4,3-c]pyrazol-7-yl]oxy]pyrimidine-5-carboxylic acid] | < 1
Cc1nc2ccc(N(C)C(=O)c3cccc(-n4nc(C(F)(F)F)c5c4C(Oc4ncc(C(=O)O)cn4)COC5)c3)cc2o1 (racemic) [Compound 297] | < 1
CN(C(=O)c1cccc(-n2nc(C(F)(F)F)c3c2C(Oc2ncc(C(=O)O)cn2)COC3)c1)c1cnc2c(c1)OCC2 (racemic) [Compound 300, 2-[[1-[3-[2,3-Dihydrofuro[3,2-b]pyridin-6-yl(methyl)carbamoyl]phenyl]-3-(trifluoromethyl)-6,7-dihydro-4H-pyrano[4,3-c]pyrazol-7-yl]oxy]pyrimidine-5-carboxylic acid] | < 1
CN(C(=O)c1cccc(-n2nc(C(F)(F)F)c3c2C(n2cc(C(=O)O)ccc2=O)COC3)c1)c1ccc2c(c1)OC(F)(F)O2 (racemic) [Compound 301, (rac)-6-oxo-1-[1-[3-[(2,2-difluoro-1,3-benzodioxol-5-yl)-methyl-carbamoyl]phenyl]-3-(trifluoromethyl)-6,7-dihydro-4H-pyrano[4,3-c]pyrazol-7-yl]pyridine-3-carboxylic acid] | 1 to 2
CN(C(=O)c1cccc(-n2nc(C(F)(F)F)c3c2C(Oc2ccc(C(=O)O)nn2)CCC3)c1)c1ccc2c(c1)OC(F)(F)O2 (racemic) [Compound 302, 6-[[1-[3-[(2,2-Difluoro-1,3-benzodioxol-5-yl)-methyl-carbamoyl]phenyl]-3-(trifluoromethyl)-4,5,6,7-tetrahydroindazol-7-yl]oxy]pyridazine-3-carboxylic acid] | > 2
CN(C(=O)c1cccc(-n2nc(C(F)(F)F)c3c2C(Oc2ccc(C(=O)O)cc2)CCC3)c1)c1ccc2c(c1)S(=O)(=O)CC2 (racemic) [Compound 303, 4-[[1-[3-[(1,1-Dioxo-2,3-dihydrobenzothiophen-6-yl)-methyl-carbamoyl]phenyl]-3-(trifluoromethyl)-4,5,6,7-tetrahydroindazol-7-yl]oxy]benzoic acid] | > 2
CN(C(=O)c1cccc(-n2nc(C(F)(F)F)c3c2C(Oc2ncc(C(=O)O)cn2)COC3)c1)c1cnc2c(c1)CCC2 (racemic) [Compound 305, (rac)-2-[[1-[3-[6,7-dihydro-5H-cyclopenta[b]pyridin-3-yl(methyl)carbamoyl]phenyl]-3-(trifluoro-methyl)-6,7-dihydro-4H-pyrano[4,3-c]pyrazol-7-yl]oxy]pyrimidine-5-carboxylic acid] | < 1
COc1ncc(N(C)C(=O)c2cccc(-n3nc(C(F)(F)F)c4c3C(Oc3ccc(C(=O)O)cc3)COC4)c2)cn1 (racemic) [Compound 306, 4-[[1-[3-[(2-Methoxypyrimidin-5-yl)-methyl-carbamoyl]phenyl]-3-(trifluoromethyl)-6,7-dihydro-4H-pyrano[4,3-c]pyrazol-7-yl]oxy]benzoic acid] | 1 to 2
CN(C(=O)c1cccc(-n2nc(C(F)(F)F)c3c2C(Oc2ccc(C(=O)O)cc2)CCC3)c1)c1cncc(F)c1 (racemic) [Compound 307, (rac)-4-[[1-[3-[(5-fluoro-3-pyridyl)methyl-carbamoyl]phenyl]-3-(trifluoromethyl)-4,5,6,7-tetrahydroindazol-7-yl]oxy]benzoic acid] | > 2
COc1cc(N(C)C(=O)c2cccc(-n3nc(C(F)(F)F)c4c3C(Oc3ccc(C(=O)O)cc3)CCC4)c2)ccc1F (racemic) [Compound 308, 4-[[1-[3-[(4-Fluoro-3-methoxy-phenyl)-methyl-carbamoyl]phenyl]-3-(trifluoromethyl)-4,5,6,7-tetrahydroindazol-7-yl]oxy]benzoic acid] | > 2
CN(C(=O)c1cccc(-n2nc(C(F)(F)F)c3c2C(Oc2ccc(C(=O)O)cc2)CCC3)c1)c1cncc(Cl)c1 (racemic) [Compound 309, 4-[[1-[3-[(5-chloro-3-pyridyl)-methyl-carbamoyl]phenyl]-3-(trifluoromethyl)-4,5,6,7-tetrahydroindazol-7-yl]oxy]benzoic acid] | > 2
CN(C(=O)c1cccc(-n2nc(C(F)(F)F)c3c2C(Oc2ccc(C(=O)O)cc2)CCC3)c1)c1cncc(C#N)c1 (racemic) [Compound 310, 4-[[1-[3-[(5-Cyano-3-pyridyl)-methyl-carbamoyl]phenyl]-3-(trifluoromethyl)-4,5,6,7-tetrahydroindazol-7-yl]oxy]benzoic acid] | 1 to 2
COc1ccc(N(C)C(=O)c2cccc(-n3nc(C(F)(F)F)c4c3C(Oc3ccc(C(=O)O)cc3)CCC4)c2)cc1OC (racemic) [Compound 311, 4-[[1-[3-[(3,4-Dimethoxyphenyl)-methyl-carbamoyl]phenyl]-3-(trifluoromethyl)-4,5,6,7-tetrahydroindazol-7-yl]oxy]benzoic acid] | > 2
CC(C)Oc1cncc(N(C)C(=O)c2cccc(-n3nc(C(F)(F)F)c4c3C(Oc3ccc(C(=O)O)cc3)CCC4)c2)c1 (racemic) [Compound 312, 4-[[1-[3-[(5-Isopropoxy-3-pyridyl)-methyl-carbamoyl]phenyl]-3-(trifluoromethyl)-4,5,6,7-tetrahydroindazol-7-yl]oxy]benzoic acid] | 1 to 2
